Results as given in the supplement of paper PMC10307832.

Tests used:
Assay in all cases: relative viability (nuclei count vs DMSO), 5 days (fraction); higher = more cells survive
BAM7 + OSI-027 = compound: CCOC1=CC=CC=C1N=NC2=C(NN(C2=O)C3=NC(=CS3)C4=CC=CC=C4)C [BAM7] + COc1cccc2cc(-c3nc([C@H]4CC[C@H](C(=O)O)CC4)n4ncnc(N)c34)[nH]c12 [OSI-027] (partner 0.5 µM)
Outline: (§1)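 Lung cancer cell lines were pin-tool dosed in 1536-well plates on the day after seeding, with either a lone drug or a fixed anchor-drug dose plus five library-drug doses (not always all listed) in √10 steps. Nuclei were counted on 4× images after 5 days. Relative viability is the ratio of treated-well to vehicle-well nuclei counts, with each value a median of duplicate plates.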

BAM7 + Dasatinib = compound: CCOC1=CC=CC=C1N=NC2=C(NN(C2=O)C3=NC(=CS3)C4=CC=CC=C4)C [BAM7] + Cc1nc(Nc2ncc(C(=O)Nc3c(C)cccc3Cl)s2)cc(N2CCN(CCO)CC2)n1 [Dasatinib] (partner 0.075 µM)
Outline: as §1

BAM7 + Tozasertib = compound: CCOC1=CC=CC=C1N=NC2=C(NN(C2=O)C3=NC(=CS3)C4=CC=CC=C4)C [BAM7] + Cc1cc(Nc2cc(N3CCN(C)CC3)nc(Sc3ccc(NC(=O)C4CC4)cc3)n2)n[nH]1 [Tozasertib] (partner 0.1 µM)
Outline: as §1

[1] = compound: CCn1c(-c2nonc2N)nc2c(C#CC(C)(C)O)ncc(OC[C@H]3CCCNC3)c21 + N=C(N)NC(=N)NCCc1ccccc1 [Phenformin] (partner 250 µM)
Outline: as §1

Cell Line: UMC-11
- relative viability (BAM7 + OSI-027; first compound 0.5 µM): 0.465
- relative viability (BAM7 + OSI-027; first compound 5 µM): 0.461
- relative viability (BAM7 + OSI-027; first compound 15.81 µM): 0.461
- relative viability (BAM7 + OSI-027; first compound 50 µM): 0.487
- relative viability (BAM7 + Dasatinib; first compound 0.5 µM): 0.511
- relative viability (BAM7 + Dasatinib; first compound 5 µM): 0.509
- relative viability (BAM7 + Dasatinib; first compound 15.81 µM): 0.449
- relative viability (BAM7 + Dasatinib; first compound 50 µM): 0.479
- relative viability (BAM7 + Tozasertib; first compound 0.5 µM): 0.2
- relative viability (BAM7 + Tozasertib; first compound 5 µM): 0.202
- relative viability (BAM7 + Tozasertib; first compound 15.81 µM): 0.196
- relative viability (BAM7 + Tozasertib; first compound 50 µM): 0.198
- relative viability ([1]; first compound 0.01 µM): 0.35
- relative viability ([1]; first compound 0.03162 µM): 0.351
- relative viability ([1]; first compound 0.1 µM): 0.31
- relative viability ([1]; first compound 0.3162 µM): 0.32
- relative viability ([1]; first compound 1 µM): 0.301
